From patent US4229204A, “Trifluoromethylphenyl isoxazolyl benzoates” (Monsanto Company, priority 1978, dated 1980)

Legend:
Type in all cases: in vivo
cheyenne wheat = test: Growth regulation of wheat (Table XI)
Excerpt: Table XI summarizes observations made when the compound of Example Number 3 was applied to cheyenne wheat.

Williams soybeans = test: Soybean seed yield test (Table V)
Experimental: Additionally, the compound of Example Number 3 was tested as follows.
Williams soybeans were planted on 5.5 inch row spacings. The soybeans were treated at three different stages of early growth (first, second or third trifoliate opening) with a formulation of the compound of Example Number 3 containing 0.25% Tween 20 as a surfactant.

harber barley = test: Growth regulation of barley (Table X)
Excerpt: Table X, below, summarizes observations made when the compound of Example Number 3 was applied to harber barley.

Downy Brome [1] = test: Post-emergent herbicidal test; also: ranges in brackets are in %
Experimental: (§1) The post-emergent tests were conducted as follows:
(§2) The active ingredients are applied in spray form to two or three week old specimens of various plant species. The spray, a solution or wettable powder suspension containing the appropriate rate of active ingredient to give the desired test rate and a surfactant, is applied to the plants.
(§3) The compounds were also tested by utilizing the above procedure on the following plant species: […]

Johnsongrass = test: Post-emergent herbicidal test; settings: 4 WAT, 11.2 kg/h; also: ranges in brackets are in %
Experimental: as §1, §2, §3

Velvetleaf = test: Post-emergent herbicidal test; also: ranges in brackets are in %
Experimental: as §1, §2, §3

Canada Thistle [2] = test: Post-emergent herbicidal test; settings: 4 WAT, 11.2 kg/h; also: ranges in brackets are in %
Experimental: as §1, §2, §3

Cocklebur = test: Post-emergent herbicidal test; also: ranges in brackets are in %
Experimental: as §1, §2, §3

Smartweed [3] = test: Post-emergent herbicidal test; also: ranges in brackets are in %
Experimental: as §1, §2, §3

Morningglory [4] = test: Post-emergent herbicidal test; also: ranges in brackets are in %
Experimental: as §1, §2, §3

Quackgrass = test: Post-emergent herbicidal test; settings: 4 WAT, 11.2 kg/h; also: ranges in brackets are in %
Experimental: as §1, §2, §3

Lambsquarters [5] = test: Post-emergent herbicidal test; also: ranges in brackets are in %
Experimental: as §1, §2, §3

Yellow Nutsedge [6] = test: Post-emergent herbicidal test; settings: 4 WAT, 11.2 kg/h; also: ranges in brackets are in %
Experimental: as §1, §2, §3

Barnyardgrass [7] = test: Post-emergent herbicidal test; also: ranges in brackets are in %
Experimental: as §1, §2, §3

Downy Brome [8] = test: Pre-emergent herbicidal test; also: ranges in brackets are in %
Experimental: (§4) The pre-emergent test was conducted as follows:
(§5) A good grade of top soil was placed in aluminum pans and compacted to a depth of three-eighths to one-half inch from the top of the pan. On the top of the soil was placed a predetermined number of seeds or vegetative propagules of various plant species which were pressed into the soil surface. The soil required to level fill the pans after seeding or adding vegetative propagules was weighed into a pan. A known amount of the active ingredient applied in a solvent or as a wettable powder and the soil were thoroughly mixed, and used as a cover layer for prepared pans.
(§6) The herbicidal rating was obtained by means of a fixed scale based on the percent injury of each plant species. The ratings are defined as follows: […]
as §3

Canada Thistle [9] = test: Pre-emergent herbicidal test; settings: 2 WAT, 11.2 kg/h; also: ranges in brackets are in %
Experimental: as §4, §5, §6, §3

Smartweed [10] = test: Pre-emergent herbicidal test; also: ranges in brackets are in %
Experimental: as §4, §5, §6, §3

Morningglory [11] = test: Pre-emergent herbicidal test; also: ranges in brackets are in %
Experimental: as §4, §5, §6, §3

Lambsquarters [12] = test: Pre-emergent herbicidal test; also: ranges in brackets are in %
Experimental: as §4, §5, §6, §3

Yellow Nutsedge [13] = test: Pre-emergent herbicidal test; settings: 2 WAT, 11.2 kg/h; also: ranges in brackets are in %
Experimental: as §4, §5, §6, §3

Barnyardgrass [14] = test: Pre-emergent herbicidal test; also: ranges in brackets are in %
Experimental: as §4, §5, §6, §3

Wild Buckwheat = test: Post-emergent herbicidal test; also: ranges in brackets are in %
Experimental: as §1, §2

Soybean = test: Post-emergent herbicidal test; also: ranges in brackets are in %
Experimental: as §1, §2

Crabgrass = test: Post-emergent herbicidal test; also: ranges in brackets are in %
Experimental: as §1, §2

Rice = test: Post-emergent herbicidal test; also: ranges in brackets are in %
Experimental: as §1, §2

Sugarbeet = test: Post-emergent herbicidal test; also: ranges in brackets are in %
Experimental: as §1, §2

Sorghum = test: Post-emergent herbicidal test; also: ranges in brackets are in %
Experimental: as §1, §2

Hemp Sesbania = test: Post-emergent herbicidal test; also: ranges in brackets are in %
Experimental: as §1, §2

Panicum Spp. = test: Post-emergent herbicidal test; also: ranges in brackets are in %
Experimental: as §1, §2

Wheat = test: Post-emergent herbicidal test; also: ranges in brackets are in %
Experimental: as §1, §2

[15] = time of treatment 42 days, 10 ppm, 3 weeks after treatment
[16] = time of treatment 42 days, 50 ppm, 3 weeks after treatment
[17] = time of treatment 42 days, 250 ppm, 3 weeks after treatment

COC(=O)c1ccccc1-c1cc(-c2cccc(C(F)(F)F)c2)no1 [Example 3, Methyl 2-[3-[3-(Trifluoromethyl)-Phenyl]-5-Isoxazolyl]Benzoate]
62.5 bu/acre: Seed Yield (Williams soybeans; 0.0250 lb/acre, stage of application 1 (untreated 63.9))
3 (75-99): herbicidal rating (Quackgrass) | herbicidal rating (Barnyardgrass [7]; 4 WAT, 11.2 kg/h)
1 (25-49): herbicidal rating (Velvetleaf; 2 WAT, 1.12 kg/h) | herbicidal rating (Velvetleaf; 4 WAT, 5.60 kg/h) | herbicidal rating (Cocklebur; 2 WAT, 1.12 kg/h) | herbicidal rating (Cocklebur; 4 WAT, 5.60 kg/h) | herbicidal rating (Smartweed [3]; 2 WAT, 1.12 kg/h) | herbicidal rating (Smartweed [3]; 4 WAT, 5.60 kg/h) | herbicidal rating (Morningglory [4]; 2 WAT, 1.12 kg/h) | herbicidal rating (Morningglory [4]; 4 WAT, 5.60 kg/h) | herbicidal rating (Lambsquarters [5]; 2 WAT, 1.12 kg/h) | herbicidal rating (Lambsquarters [5]; 4 WAT, 5.60 kg/h) | herbicidal rating (Downy Brome [8]; 4 WAT, 1.12 kg/h) | herbicidal rating (Lambsquarters [12]; 4 WAT, 1.12 kg/h) | herbicidal rating (Wild Buckwheat; 2 WAT, 1.12 kg/h) | herbicidal rating (Wild Buckwheat; 4 WAT, 5.60 kg/h) | herbicidal rating (Soybean; 2 WAT, 1.12 kg/h) | herbicidal rating (Soybean; 4 WAT, 5.60 kg/h) | herbicidal rating (Sugarbeet; 4 WAT, 5.60 kg/h) | herbicidal rating (Hemp Sesbania; 2 WAT, 1.12 kg/h) | herbicidal rating (Wheat; 2 WAT, 1.12 kg/h)
109 % of Control: Plant Height (cheyenne wheat; [17])
59.6 bu/acre: Seed Yield (Williams soybeans; 0.0375 lb/acre, stage of application 1 (untreated 63.9))
64.7 bu/acre: Seed Yield (Williams soybeans; 0.0250 lb/acre, stage of application 2 (untreated 63.9))
63.6 bu/acre: Seed Yield (Williams soybeans; 0.0062 lb/acre, stage of application 2 (untreated 63.9))
97 % of Control: Plant Height (harber barley; time of treatment 16 days, 250 ppm, 6 weeks after treatment)
3 (75-100): herbicidal rating (Canada Thistle [9]) | herbicidal rating (Smartweed [10]; 2 WAT, 11.2 kg/h) | herbicidal rating (Smartweed [10]; 4 WAT, 1.12 kg/h) | herbicidal rating (Smartweed [10]; 4 WAT, 5.60 kg/h) | herbicidal rating (Morningglory [11]; 4 WAT, 5.60 kg/h) | herbicidal rating (Lambsquarters [12]; 2 WAT, 11.2 kg/h) | herbicidal rating (Barnyardgrass [14]; 2 WAT, 11.2 kg/h) | herbicidal rating (Barnyardgrass [14]; 4 WAT, 1.12 kg/h) | herbicidal rating (Barnyardgrass [14]; 4 WAT, 5.60 kg/h)
0 (0-24): herbicidal rating (Downy Brome [1]; 2 WAT, 1.12 kg/h) | herbicidal rating (Downy Brome [1]; 4 WAT, 5.60 kg/h) | herbicidal rating (Yellow Nutsedge [6]) | herbicidal rating (Barnyardgrass [7]; 2 WAT, 1.12 kg/h) | herbicidal rating (Barnyardgrass [7]; 4 WAT, 5.60 kg/h) | herbicidal rating (Crabgrass; 2 WAT, 1.12 kg/h) | herbicidal rating (Crabgrass; 4 WAT, 5.60 kg/h) | herbicidal rating (Rice; 2 WAT, 1.12 kg/h) | herbicidal rating (Rice; 4 WAT, 5.60 kg/h) | herbicidal rating (Sugarbeet; 2 WAT, 1.12 kg/h) | herbicidal rating (Sorghum; 2 WAT, 1.12 kg/h) | herbicidal rating (Sorghum; 4 WAT, 5.60 kg/h) | herbicidal rating (Hemp Sesbania; 4 WAT, 5.60 kg/h) | herbicidal rating (Panicum Spp.; 2 WAT, 1.12 kg/h) | herbicidal rating (Panicum Spp.; 4 WAT, 5.60 kg/h) | herbicidal rating (Wheat; 4 WAT, 5.60 kg/h)
2 (50-74): herbicidal rating (Downy Brome [1]; 4 WAT, 11.2 kg/h) | herbicidal rating (Johnsongrass) | herbicidal rating (Velvetleaf; 4 WAT, 11.2 kg/h) | herbicidal rating (Canada Thistle [2]) | herbicidal rating (Cocklebur; 4 WAT, 11.2 kg/h) | herbicidal rating (Morningglory [4]; 4 WAT, 11.2 kg/h) | herbicidal rating (Downy Brome [8]; 2 WAT, 11.2 kg/h) | herbicidal rating (Downy Brome [8]; 4 WAT, 5.60 kg/h) | herbicidal rating (Morningglory [11]; 2 WAT, 11.2 kg/h) | herbicidal rating (Morningglory [11]; 4 WAT, 1.12 kg/h) | herbicidal rating (Lambsquarters [12]; 4 WAT, 5.60 kg/h) | herbicidal rating (Yellow Nutsedge [13])
65.7 bu/acre: Seed Yield (Williams soybeans; 0.0125 lb/acre, stage of application 3 (untreated 63.9))
90 % of Control: Plant Height (harber barley; time of treatment 16 days, 250 ppm, 3 weeks after treatment) | Plant Height (harber barley; [17])
57.5 bu/acre: Seed Yield (Williams soybeans; 0.0375 lb/acre, stage of application 2 (untreated 63.9))
112 % of Control: Plant Height (cheyenne wheat; [16])
106 % of Control: Plant Height (harber barley; [16])
93 % of Control: Plant Height (cheyenne wheat; time of treatment 15 days, 250 ppm, 6 weeks after treatment) | Plant Height (harber barley; [15])
68.2 bu/acre: Seed Yield (Williams soybeans; 0.0125 lb/acre, stage of application 2 (untreated 63.9))
113 % of Control: Plant Height (cheyenne wheat; [15])
69.9 bu/acre: Seed Yield (Williams soybeans; 0.0250 lb/acre, stage of application 3 (untreated 63.9))
67.4 bu/acre: Seed Yield (Williams soybeans; 0.0125 lb/acre, stage of application 1 (untreated 63.9))
70.3 bu/acre: Seed Yield (Williams soybeans; 0.0375 lb/acre, stage of application 3 (untreated 63.9))
4 (100): herbicidal rating (Smartweed [3]; 4 WAT, 11.2 kg/h) | herbicidal rating (Lambsquarters [5]; 4 WAT, 11.2 kg/h)
80 % of Control: Plant Height (cheyenne wheat; time of treatment 15 days, 250 ppm, 3 weeks after treatment)
71.3 bu/acre: Seed Yield (Williams soybeans; 0.0500 lb/acre, stage of application 2 (untreated 63.9))
